What follows are molecules tested against p97 ATPase WT (Homo sapiens (Human), UniProt P55072) (assay: p97 ADP-Glo assay). Settings: Table 3; read-out: ADPGlo IC50.
Assay type: biochemical
Excerpt: ADP-Glo™ (Promega Corp.) is a bioluminescent, homogeneous assay that measures ADP formed from a biochemical reactions. Because of its high sensitivity, the assay is suitable for monitoring enzyme activities at very early substrate conversions requiring very low amount of enzymes.
The ADP-Glo assay can be conducted as described in Chou, T.-F.; Bulfer, S. L.; Weihl, C.

Sequence of p97 ATPase WT (P55072 whole entry): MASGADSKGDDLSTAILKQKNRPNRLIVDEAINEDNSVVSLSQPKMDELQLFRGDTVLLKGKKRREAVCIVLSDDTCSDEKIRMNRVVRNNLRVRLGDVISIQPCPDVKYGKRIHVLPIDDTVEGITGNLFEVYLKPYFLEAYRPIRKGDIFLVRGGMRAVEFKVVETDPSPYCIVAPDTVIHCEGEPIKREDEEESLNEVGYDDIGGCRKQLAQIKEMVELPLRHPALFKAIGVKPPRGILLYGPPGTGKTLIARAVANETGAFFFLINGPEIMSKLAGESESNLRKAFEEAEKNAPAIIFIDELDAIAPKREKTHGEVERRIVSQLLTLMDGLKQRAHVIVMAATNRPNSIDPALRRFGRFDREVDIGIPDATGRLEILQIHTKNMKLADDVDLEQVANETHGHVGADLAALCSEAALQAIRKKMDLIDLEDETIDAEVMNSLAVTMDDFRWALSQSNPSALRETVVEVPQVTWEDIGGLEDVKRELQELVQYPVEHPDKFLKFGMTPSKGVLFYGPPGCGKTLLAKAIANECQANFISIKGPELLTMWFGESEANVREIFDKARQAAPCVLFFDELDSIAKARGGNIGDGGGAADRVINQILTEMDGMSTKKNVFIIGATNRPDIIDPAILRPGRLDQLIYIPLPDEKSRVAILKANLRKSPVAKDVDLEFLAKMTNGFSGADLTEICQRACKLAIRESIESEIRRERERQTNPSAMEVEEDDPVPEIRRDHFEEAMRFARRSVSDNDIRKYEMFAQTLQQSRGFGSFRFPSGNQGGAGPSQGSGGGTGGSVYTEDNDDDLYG

Row | Structure (SMILES) | IC50
1 | Cn1ncnc1CCNC1CCN(c2cccc(-c3cc4ccccc4[nH]3)c2)CC1 | 810 nM
2 | Cn1ncnc1CCNC1CCN(c2cccc(-c3cc4cc(C#N)ccc4[nH]3)c2)CC1 | 890 nM
3 | c1cncc(CNC2CCN(c3cccc(-c4cc5ccccc5[nH]4)c3)CC2)c1 | 740 nM
4 | c1ccc(CNC2CCN(c3cccc(-c4cc5ccccc5[nH]4)c3)CC2)cc1 | 960 nM
5 | c1ccc(CCNC2CCN(c3cccc(-c4cc5ccccc5[nH]4)c3)CC2)nc1 | 720 nM
6 | Cc1ccc(CNC2CCN(c3cccc(-c4cc5ccccc5[nH]4)c3)CC2)o1 | 890 nM
7 | c1ccc(CNC2CCN(c3cccc(-c4cc5ccccc5[nH]4)c3)CC2)nc1 | 1000 nM
8 | CN1[C@@H]2CCC[C@H]1C[C@@H](NC1CCN(c3cccc(-c4cc5ccccc5[nH]4)c3)CC1)C2 | 1300 nM
9 | c1cc(-c2cc3ccccc3[nH]2)cc(N2CCC(NCc3ccncc3)CC2)c1 | 1400 nM
10 | c1ccc(CCNC2CCN(c3cccc(-c4cc5ccccc5[nH]4)c3)CC2)cc1 | 2700 nM
11 | CC(C)N1CCN(CCNC2CCN(c3cccc(NC(=O)OCc4ccccc4)c3)CC2)CC1 | 1700 nM
12 | CN1CCN(C2CCN(c3cccc(-c4cc5ccccc5[nH]4)c3)CC2)CC1 | 13000 nM
13 | CC(C)N1CCN(CCNC2CCN(c3cccc(-c4cc5cc([N+](=O)[O-])ccc5[nH]4)c3)CC2)CC1 [drawing 222] | 36 nM
14 | CC(C)N1CCC(NC2CCN(c3cccc(-c4cc5cc(C#N)ccc5[nH]4)c3)CC2)CC1 [drawing 226] | 47 nM
15 | CC(C)N1CCC(NC2CCN(c3cccc(-c4cc5cc(C#N)ccc5[nH]4)c3)CC2)CC1 [drawing 239] | 4900 nM

Other lines, results leading:

Row | IC50 | Structure (SMILES)
16 | 510 nM | COC(=O)c1ccc2[nH]c(-c3cccc(N4CCC(NC5CCN(C(C)C)CC5)CC4)c3)cc2c1
17 | 800 nM | CC1CCN(CCNC2CCN(c3cccc(-c4cc5ccccc5[nH]4)c3)CC2)CC1
18 | 850 nM | O=C1CN(CCNC2CCN(c3cccc(-c4cc5ccccc5[nH]4)c3)CC2)CCN1
19 | 1000 nM | COC(=O)CCNC1CCN(c2cccc(-c3cc4ccccc4[nH]3)c2)CC1
20 | 1100 nM | CC(C)(C)OC(=O)N1CCCN(CCNC2CCN(c3cccc(-c4cc5ccccc5[nH]4)c3)CC2)CC1
21 | 570 nM | CN(C)CCNC1CCN(c2cccc(-c3cc4ccccc4[nH]3)c2)CC1
22 | 1300 nM | FC(F)(F)CN1CCN(CCNC2CCN(c3cccc(-c4cc5ccccc5[nH]4)c3)CC2)CC1
23 | 880 nM | c1cc(-c2cc3ccccc3[nH]2)cc(N2CCC(NCCN3CCCC3)CC2)c1
24 | 1300 nM | CC(C)N1CCN(CCNC2CCN(c3cccc(-c4cc5c(F)cccc5[nH]4)c3)CC2)CC1
25 | 910 nM | c1cc(-c2cc3ccccc3[nH]2)cc(N2CCC(NCCN3CCOCC3)CC2)c1
26 | 1300 nM | Cn1ncnc1CCNC1CCN(c2cccc(-c3cc4cc(F)ccc4[nH]3)c2)CC1
27 | 1300 nM | COC(=O)CCNC1CCN(c2cccc(-c3cc4cc(F)ccc4[nH]3)c2)CC1
28 | 1700 nM | CCCCNC1CCN(c2cccc(-c3cc4ccccc4[nH]3)c2)CC1
29 | 1400 nM | O=C(CCNC1CCN(c2cccc(-c3cc4cc(F)ccc4[nH]3)c2)CC1)N1CCCCC1

Same assay, conditions: p97 ADP-Glo assay, differ from Table 2; read-out: ADP-Glo IC50

Row | Structure (SMILES) | IC50
30 | CC(C)N1CCN(CCNC2CCN(c3cccc(-c4cc5cc([N+](=O)[O-])ccc5[nH]4)c3)CC2)CC1 [Compound 23, N-(2-(4-Isopropylpiperazin-1-yl)ethyl)-1-(3-(5-nitro-1H-indol-2-yl)phenyl)piperidin-4-amine] | 40 ± 40 nM

Same assay, conditions: p97 ADP-Glo assay; read-out: inhibitor of the AAA ATPase (potency in words)

Row | Structure (SMILES) | IC50
31 | CC(C)N1CCN(CCNC2CCN(c3cccc(-c4cc5cc([N+](=O)[O-])ccc5[nH]4)c3)CC2)CC1 [Compound 23, N-(2-(4-Isopropylpiperazin-1-yl)ethyl)-1-(3-(5-nitro-1H-indol-2-yl)phenyl)piperidin-4-amine] | 40 nM
